{"source": "paper PMC7917901", "about": "(Marine Drugs, 2021)", "key": {"[1]": {"test_system": "oxaliplatin-induced mechanical allodynia", "design": "species or system mice (C57BL/6J)", "conditions": "mouse, in vivo"}, "[2]": {"test_system": "oxaliplatin-induced mechanical allodynia", "design": "species or system mice (C57BL/6J)", "conditions": "mouse, in vivo", "remark": "listed apart in the source"}, "[3]": {"test_system": "naïve C57BL6/J mice", "conditions": "mouse, in vivo"}, "[4]": {"test_system": "naïve C57BL6/J mice", "conditions": "mouse, in vivo", "remark": "listed apart in the source"}, "[5]": {"conditions": "in vivo; cited from earlier work"}, "[6]": {"test_system": "surgery-induced thermal allodynia", "design": "species or system mice (C57BL/6J)", "conditions": "mouse, in vivo"}, "[7]": {"test_system": "naïve C57BL6/J mice", "conditions": "mouse, in vivo", "remark": "listed apart in the source"}, "[8]": {"test_system": "mouse inflammatory pain", "conditions": "in vivo, sc; cited from earlier work"}, "[9]": {"test_system": "surgery-induced mechanical allodynia", "design": "species or system mice (C57BL/6J)", "conditions": "mouse, in vivo"}, "[10]": {"test_system": "CaV channel", "conditions": "cited from earlier work"}, "[11]": {"test_system": "cisplatin-induced mechanical allodynia", "design": "species or system mice (C57BL/6J)", "conditions": "mouse, in vivo"}, "[12]": {"conditions": "in vivo, cited from earlier work"}, "[13]": {"biological_target": "T1, endogenous CaV2.2 channels, expressed in the SH-SY5Y cells (Homo sapiens, UniProt Q00975)", "T1 construct": "endogenous CaV2.2 channels, expressed in the SH-SY5Y cells; endogenous in cells; host or cells: SH-SY5Y human neuroblastoma cells", "T1 sequence (Q00975 whole entry, looked up)": "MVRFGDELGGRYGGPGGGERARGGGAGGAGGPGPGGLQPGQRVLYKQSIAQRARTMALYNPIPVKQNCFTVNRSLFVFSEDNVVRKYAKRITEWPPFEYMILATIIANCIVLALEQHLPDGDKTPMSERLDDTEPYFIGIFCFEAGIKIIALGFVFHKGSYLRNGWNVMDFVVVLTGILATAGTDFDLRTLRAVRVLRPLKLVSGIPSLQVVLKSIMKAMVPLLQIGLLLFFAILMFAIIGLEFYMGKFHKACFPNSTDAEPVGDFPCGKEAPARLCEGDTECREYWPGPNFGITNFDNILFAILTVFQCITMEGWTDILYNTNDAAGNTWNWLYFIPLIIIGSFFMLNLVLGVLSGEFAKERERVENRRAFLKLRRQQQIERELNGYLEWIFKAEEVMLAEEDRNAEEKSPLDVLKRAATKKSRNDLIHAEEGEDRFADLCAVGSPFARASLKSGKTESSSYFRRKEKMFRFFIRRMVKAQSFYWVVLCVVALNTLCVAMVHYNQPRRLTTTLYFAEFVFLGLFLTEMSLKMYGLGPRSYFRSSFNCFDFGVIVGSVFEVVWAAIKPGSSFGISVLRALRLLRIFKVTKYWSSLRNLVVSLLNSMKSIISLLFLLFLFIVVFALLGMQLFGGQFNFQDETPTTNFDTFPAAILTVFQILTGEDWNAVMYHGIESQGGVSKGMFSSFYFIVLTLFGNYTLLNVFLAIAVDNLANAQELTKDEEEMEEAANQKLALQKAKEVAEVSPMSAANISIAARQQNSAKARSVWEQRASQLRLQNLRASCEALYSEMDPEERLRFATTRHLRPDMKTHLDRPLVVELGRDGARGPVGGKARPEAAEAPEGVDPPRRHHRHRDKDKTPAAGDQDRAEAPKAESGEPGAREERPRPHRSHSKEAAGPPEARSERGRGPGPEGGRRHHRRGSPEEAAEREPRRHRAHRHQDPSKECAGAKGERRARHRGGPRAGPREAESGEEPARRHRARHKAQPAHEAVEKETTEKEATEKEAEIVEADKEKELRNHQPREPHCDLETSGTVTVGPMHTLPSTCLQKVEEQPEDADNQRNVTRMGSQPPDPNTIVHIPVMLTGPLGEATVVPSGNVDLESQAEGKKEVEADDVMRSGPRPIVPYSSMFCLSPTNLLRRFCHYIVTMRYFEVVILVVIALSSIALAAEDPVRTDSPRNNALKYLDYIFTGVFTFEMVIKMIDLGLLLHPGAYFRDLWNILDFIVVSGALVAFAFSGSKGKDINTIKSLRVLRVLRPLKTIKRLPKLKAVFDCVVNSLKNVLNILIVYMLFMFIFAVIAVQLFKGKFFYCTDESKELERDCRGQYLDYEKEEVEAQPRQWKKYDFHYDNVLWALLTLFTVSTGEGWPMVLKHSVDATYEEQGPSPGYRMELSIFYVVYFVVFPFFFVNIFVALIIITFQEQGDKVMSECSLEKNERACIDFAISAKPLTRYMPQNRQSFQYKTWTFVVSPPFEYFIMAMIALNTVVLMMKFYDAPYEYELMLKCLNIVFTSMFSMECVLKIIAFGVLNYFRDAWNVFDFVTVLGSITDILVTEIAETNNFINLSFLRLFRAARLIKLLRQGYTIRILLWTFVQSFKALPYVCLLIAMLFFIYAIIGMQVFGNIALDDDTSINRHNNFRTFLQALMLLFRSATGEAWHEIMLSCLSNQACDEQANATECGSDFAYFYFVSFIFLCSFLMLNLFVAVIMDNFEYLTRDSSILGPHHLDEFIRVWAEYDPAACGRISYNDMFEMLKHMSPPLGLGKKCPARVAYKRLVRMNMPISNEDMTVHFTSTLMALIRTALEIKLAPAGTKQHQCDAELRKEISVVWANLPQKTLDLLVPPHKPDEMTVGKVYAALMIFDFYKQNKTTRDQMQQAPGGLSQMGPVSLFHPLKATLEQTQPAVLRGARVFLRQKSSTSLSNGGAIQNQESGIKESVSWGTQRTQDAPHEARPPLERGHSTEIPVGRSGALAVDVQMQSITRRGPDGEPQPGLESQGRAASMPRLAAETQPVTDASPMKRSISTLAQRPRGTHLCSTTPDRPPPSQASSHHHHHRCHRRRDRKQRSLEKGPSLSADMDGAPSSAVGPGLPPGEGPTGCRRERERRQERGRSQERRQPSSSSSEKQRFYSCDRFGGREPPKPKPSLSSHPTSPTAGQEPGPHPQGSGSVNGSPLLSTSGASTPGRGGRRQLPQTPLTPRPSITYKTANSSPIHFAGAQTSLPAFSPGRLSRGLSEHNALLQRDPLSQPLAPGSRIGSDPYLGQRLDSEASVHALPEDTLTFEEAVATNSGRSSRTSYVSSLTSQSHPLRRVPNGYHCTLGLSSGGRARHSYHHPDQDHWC", "assay": "cell-based"}}, "note": "“Also recorded” adds a separate entry of the source. Positions of bridges follow the written chain, without caps; N, C: chain ends. Residues, ends and D or L forms follow the SMILES beside them.", "data": [{"compound": "CC(C)C[C@@H]1NC(=O)[C@H](CCCNC(=N)N)NC(=O)[C@@H]2CSSC[C@@H]3NC(=O)[C@H](CO)NC(=O)[C@H](C)NC(=O)CNC(=O)[C@H](CCCCN)NC(=O)CNC(=O)[C@H](CCCCN)NC(=O)[C@@H](N)CSSC[C@H](NC(=O)[C@H](CSSC[C@@H](C(N)=O)NC(=O)[C@H](CCCNC(=N)N)NC(=O)CNC1=O)NC(=O)[C@H](CC(=O)O)NC(=O)[C@H](Cc1ccc(O)cc1)NC(=O)[C@H](CO)NC(=O)[C@H]([C@@H](C)O)NC(=O)[C@H](CCCNC(=N)N)NC(=O)[C@H](CCCNC(=N)N)NC3=O)C(=O)N[C@@H]([C@@H](C)O)C(=O)NCC(=O)N[C@@H](CO)C(=O)N2", "note": "[CVIF] (H-CKGKGASCRRTSYDCCTGSCRLGRC-NH2; disulfide 1-16, 8-20, 15-25)", "values": [{"measurement": "Activity across the pain models", "setting": "[1]", "value": "inactive in these pain models; also recorded: not found effective in any of the peripheral pain models"}, {"measurement": "Effect on OIPN mechanical PWT, 6 pmol/paw", "setting": "[1]", "value": "did not significantly change PWTs; also recorded: did not elicit significant antiallodynic effect"}, {"measurement": "Mechanical PWT, OIPN, 2.0 pmol/paw", "setting": "[1]", "value": "1.9 ± 0.2", "unit": "g"}, {"measurement": "Mechanical PWT, OIPN, 6.0 pmol/paw", "setting": "[1]", "value": "1.7 ± 0.1", "unit": "g"}, {"measurement": "Effect of contralateral administration on OIPN mechanical PWT", "setting": "[2]", "value": "did not significantly change mechanical PWTs; also recorded: did not reverse mechanical allodynia"}, {"measurement": "Mechanical PWT, OIPN, contralateral administration", "setting": "[2]", "value": "1.6 ± 0.4", "unit": "g"}, {"measurement": "Effect on basal mechanical PWT", "setting": "[3]", "value": "did not significantly change mechanical and thermal PWTs"}, {"measurement": "Mechanical PWT", "setting": "[3]", "value": "3.1 ± 0.2", "unit": "g"}, {"measurement": "Ataxia index", "setting": "[4]", "value": "7.3 ± 1.8"}, {"measurement": "Ataxia index (paw slips/distance covered)", "setting": "[4]", "value": "7.3 ± 1.8", "unit": "m"}, {"measurement": "Distance covered", "setting": "[4]", "value": "1.7 ± 0.4", "unit": "m"}, {"measurement": "Number of paw slips", "setting": "[4]", "value": "10.5 ± 1.5"}, {"measurement": "Number of paw slips (printed with unit g)", "setting": "[4]", "value": "10.5 ± 1.5", "unit": "g"}, {"measurement": "Safety profile", "setting": "[5]", "value": "better safety profile in preclinical studies"}, {"measurement": "Effect on PSP thermal allodynia", "setting": "[6]", "value": "did not reverse thermal allodynia"}, {"measurement": "Thermal PWT, PSP, 2.0 pmol/paw", "setting": "[6]", "value": "48.9 ± 0.4", "unit": "°C"}, {"measurement": "Effect on basal thermal PWT", "setting": "[7]", "value": "did not significantly change mechanical and thermal PWTs"}, {"measurement": "Thermal PWT", "setting": "[7]", "value": "50.8 ± 0.8", "unit": "°C"}, {"measurement": "Effect on inflammatory pain", "setting": "[8]", "value": "partially reversed the incapacitance of mouse inflammatory pain"}, {"measurement": "Side effects after subcutaneous administration", "setting": "[8]", "value": "did not cause side effects"}, {"measurement": "Effect on PSP mechanical allodynia, 6.0 pmol/paw", "setting": "[9]", "value": "remained unchanged; also recorded: did not produce any significant antiallodynic effect"}, {"measurement": "Mechanical PWT, PSP, 6.0 pmol/paw", "setting": "[9]", "value": "1.4 ± 0.1", "unit": "g"}, {"measurement": "State dependence of affinity", "setting": "[10]", "value": "higher affinity for channels in the inactivated state"}, {"measurement": "Effect on CisIPN mechanical PWT", "setting": "[11]", "value": "did not significantly change the PWTs; also recorded: did not produce any significant antiallodynic effect"}, {"measurement": "Mechanical PWT, CisIPN, 2 pmol/paw", "setting": "[11]", "value": "2.0 ± 0.3", "unit": "g"}]}, {"compound": "CSCC[C@@H]1NC(=O)[C@H](CC(C)C)NC(=O)[C@H](CCCNC(=N)N)NC(=O)[C@H](CO)NC(=O)[C@@H]2CSSC[C@@H]3NC(=O)[C@H](CO)NC(=O)CNC(=O)[C@H]([C@@H](C)O)NC(=O)[C@H](CSSC[C@H](N)C(=O)N[C@@H](CCCCN)C(=O)NCC(=O)N[C@@H](CCCCN)C(=O)NCC(=O)N[C@@H](C)C(=O)N[C@@H](CCCCN)C(=O)N2)NC(=O)[C@H](CSSC[C@@H](C(N)=O)NC(=O)[C@H](CCCCN)NC(=O)CNC(=O)[C@H](CO)NC(=O)[C@H](CCCNC(=N)N)NC3=O)NC(=O)[C@H](CC(=O)O)NC(=O)[C@H](Cc2ccc(O)cc2)NC1=O", "note": "[MVIIA]", "values": [{"measurement": "Effect on basal mechanical PWT", "setting": "[3]", "value": "did not significantly change mechanical and thermal PWTs"}, {"measurement": "Ataxia index", "setting": "[4]", "value": "6.7 ± 1.6"}, {"measurement": "Ataxia index (paw slips/distance covered)", "setting": "[4]", "value": "6.7 ± 1.6", "unit": "m"}, {"measurement": "Distance covered", "setting": "[4]", "value": "1.8 ± 0.3", "unit": "m"}, {"measurement": "Number of paw slips", "setting": "[4]", "value": "11.0 ± 1.8"}, {"measurement": "Number of paw slips (printed with unit g)", "setting": "[4]", "value": "11.0 ± 1.8", "unit": "g"}, {"measurement": "Oral bioavailability and CNS access", "setting": "[12]; po", "value": "Poor oral bioavailability and CNS access"}, {"measurement": "Plasma half-life", "setting": "[12]", "value": "short plasma half-life"}, {"measurement": "Effect on basal thermal PWT", "setting": "[7]", "value": "did not significantly change mechanical and thermal PWTs"}]}, {"compound": "C[C@@H](O)[C@@H]1NC(=O)[C@H](Cc2ccc(O)cc2)NC(=O)[C@@H]2C[C@@H](O)CN2C(=O)[C@H](CC(N)=O)NC(=O)[C@@H]2CSSC[C@@H]3NC(=O)[C@H](CO)NC(=O)[C@H](CO)NC(=O)CNC(=O)[C@@H]4C[C@@H](O)CN4C(=O)[C@H](CO)NC(=O)[C@H](CCCCN)NC(=O)[C@@H](N)CSSC[C@H](NC(=O)[C@H](CSSC[C@@H](C(=O)N[C@@H](Cc4ccc(O)cc4)C(N)=O)NC(=O)[C@H](CCCN=C(N)N)NC(=O)[C@H](CCCCN)NC1=O)NC(=O)[C@H](CC(N)=O)NC(=O)[C@H](Cc1ccc(O)cc1)NC(=O)[C@H](CO)NC(=O)[C@H]([C@@H](C)O)NC(=O)[C@@H]1C[C@@H](O)CN1C(=O)[C@H](CO)NC3=O)C(=O)N[C@@H](CCCN=C(N)N)C(=O)N[C@@H](CO)C(=O)N2", "note": "[GVIA]", "values": [{"measurement": "IC50", "setting": "[13]", "value": "0.0112 ± 0.0033", "unit": "µM"}, {"measurement": "Effect on basal mechanical PWT", "setting": "[3]", "value": "did not significantly change mechanical and thermal PWTs"}, {"measurement": "Ataxia index", "setting": "[4]", "value": "6.9 ± 1.7"}, {"measurement": "Ataxia index (paw slips/distance covered)", "setting": "[4]", "value": "6.9 ± 1.7", "unit": "m"}, {"measurement": "Distance covered", "setting": "[4]", "value": "1.7 ± 0.2", "unit": "m"}, {"measurement": "Number of paw slips", "setting": "[4]", "value": "11.3 ± 2.8"}, {"measurement": "Effect on basal thermal PWT", "setting": "[7]", "value": "did not significantly change mechanical and thermal PWTs"}]}]}
